Source: a melting point compilation (Tetko et al.; mined from patent text by program, amines drawn as free bases though some values may be those of a salt)

| SMILES | melting point [°C] |
| --- | --- |
| CC1N(C(=O)c2ccc(OCC(F)(F)C(F)F)cc2)CC(=O)OC1(Cn1cncn1)c1ccc(Cl)cc1Cl (configuration not stated) | 88 to 94 |
| O=C(Nc1ccc(F)cc1)c1ccc(OC(F)(F)F)c(Nc2cccc(C(F)(F)F)c2)c1 | 143 to 144 |
| CCc1c(Cc2ccccc2)n(COCCO)c(=O)[nH]c1=O | 120 to 122 |
| ClCc1cn2c(-c3ccccc3)cccc2n1 | 126 to 127 |
| C=C(C)C(=O)OC1=CC(C(=O)O)C(O)(C(C)=O)C=C1 (configuration not stated) | 150 |
| CCc1nn(C)c(NC(=O)Cc2ccc(Br)cc2)c1Cl | 167 to 168 |
| CCOc1cc(C)nc(-n2ccnc2)n1 | 116 |
| NC(=O)Cc1cc(=O)oc2cc(OCc3cccc(Cl)c3)ccc12 | 185 to 186 |
| O=S(=O)(CCN1CC(c2ccccc2)C(c2ccc(Cl)cc2)=N1)c1cccc(C(F)(F)F)c1 (configuration not stated) | 118 to 119 |
| CN1C(=O)c2cscc2N(C)c2ccccc21 | 101 to 102 |
| CCOC(=O)C(=CNc1cc(C)nn1-c1ccccn1)C(=O)OCC | 128 to 131 |
| COc1cc(Nc2c(C#N)cnc3cc(-c4csc(CN5CCOCC5)c4)sc23)c(Cl)cc1Cl | 209 to 212 |
| CC(C)C[C@H](NC(=O)OCc1ccccc1)C(=O)N[C@@H](Cc1ccccc1)C(=O)COCc1ccco1 | 94 to 95 |
| CC(C)(C)OC(=O)C=Cc1cc2ccccc2o1 | 56 to 57 |
| O=C(CCCCCCCCCC=C(F)F)Nc1ccccc1Cl | 54 to 55 |
| CCOC(=O)C(C(=O)OCC)=C1NC(=O)N(c2ccc([N+](=O)[O-])cc2OC)C1=O | 170 to 172 |
| CCOC(=O)C1=C(COCCCN(C)C)NC(C)=C(C(=O)OC)C1c1ccccc1Cl (configuration not stated) | 77 to 78 |
| C[C@@H](Sc1ccc(O)cc1)C(=O)O | 138 to 139 |
| COc1ccc2c(n1)C1(CO2)C(=O)Nc2cccc(Br)c21 (configuration not stated) | 265 to 268 |
| CCC(CC)c1ccc(Cl)c2nc3n(c12)CCCCN3c1cnc(N2CCCC2)cc1C | 160 to 161 |
| O=c1cc(C2CCCCC2)oc2ccc(OCCCCCN3CCC(O)CC3)cc12 | 85 to 86 |
| CCOC(=O)Cc1c(C(=O)OCC)c(Br)c(C(=O)c2ccc(Cl)cc2)n1C | 88 to 90 |
| O=c1cc(-c2ccccc2)cc(-c2ccccc2)[nH]1 | 209 to 212 |
| CC(C)(C)C1=CC(=C(C#N)C#N)C=C(c2cccs2)S1(=O)=O | 164 to 165 |
| Cc1cc(Oc2ccc([N+](=O)[O-])cc2)c2cc3c(cc2n1)OCO3 | 210 to 212 |
| CC(C)(C)OC(=O)NCc1ccc(C(=O)Nc2ccc(Nc3cc(-c4cccc5c4oc4ccccc45)ncn3)cc2)c(F)c1 | 255 |

| SMILES | melting point [°C] |
| --- | --- |
| CS(=O)(=O)Nc1ccc(NC(=O)C(=O)N2CCC(Cc3ccc(F)cc3)CC2)cc1 | 178 to 182 |
| COc1ccc(C2=C(c3ccc(S(N)(=O)=O)cc3)CCC2)cc1Cl | 179 to 180 |
| CC=CCCCn1cnc2c1c(=O)n(C)c(=O)n2C | 58 to 64 |
| CC(C)(C)[Si](C)(C)OCCCC(=O)c1cc(-c2ccc(S(N)(=O)=O)cc2)n(C2CCCCC2)n1 | 151 to 153 |
| Nc1nccc(-c2cccc(OCC(O)CN3CCN(c4ccc(Cl)cc4)CC3)c2)n1 (configuration not stated) | 141 to 142 |
| CCOC(=O)Cc1ccc(-c2cn3ccccc3n2)cc1 | 92 to 93 |
| CCc1c(N)nc(-c2ccc(C(F)(F)F)cc2)nc1C(=O)OC | 123 to 124 |
| COc1ccc(-c2[nH]nc3c2C(=O)c2c(NC(=O)CN4CCC(O)CC4)cccc2-3)cc1 | > 300 |
| Cc1cc2c(cc1C)Sc1cscc1C(=O)N2 | 264 to 265 |
| C=CCNc1ccc(C(=O)O)cc1 | 144 to 146 |
| COC(=O)c1ccc(C=Cc2cnc3nc(NC(=O)C(C)(C)C)nc(O)c3c2)[nH]1 | > 260 |
| Clc1ccc2c(c1)Nc1ncccc1N=C2c1ccccc1 | 250 to 252 |
| CN1C(=O)C(C(=O)Nc2cccc(C(F)(F)F)c2)S(=O)(=O)c2ccc(Cl)cc21 (configuration not stated) | 196 to 200 |
| COc1ccc(N2CCN(c3c(C)c(C)c4c(c3C)CC(C)(C)O4)CC2)c(OC)c1 | 154 to 156 |
| CC1(C(O)(C=Cc2ccc(Cl)cc2)Cn2cncn2)CC1(F)F (configuration not stated) | 131 |
| O=c1c(-c2nc3ccccc3[nH]2)coc2ccccc12 | 154 |
| O=C(Nc1ccc(OC(F)(F)F)c(Br)c1)C(F)(F)F | 64 to 66 |
| COc1ccc(Nc2nc(Cl)nc(Cl)n2)cc1 | 165 to 168 |
| C=Cc1ccc([C@@H](C)N=Cc2cccc(C)n2)cc1 | 25 |
| CS(=O)c1ccc(-c2coc3ccc(-c4nnc(SCc5cccc(F)c5)o4)cc23)cc1 (configuration not stated) | 135 to 136 |
| O=C(CBr)c1ccc(OCc2ccccc2)c([N+](=O)[O-])c1 | 136 |
| CC(C)c1nccc2c(CC(=O)O)cccc12 | 181 to 182 |
| COc1ccccc1C(=O)Nc1ccc(C(=O)N2Cc3cccn3Cc3ccccc32)cc1 | 185 to 188 |
| C[Si](Cn1ncnc1S)(c1ccc(F)cc1)c1ccc(F)cc1 | 97 to 99 |
| CC#CCOc1cc(/C=C/C(=O)Nc2ccccc2C(=O)O)ccc1OC | 170 to 171 |
| O=c1c2ccc(O)cc2oc2c(O)c(O)ccc12 | > 300 |

| SMILES | melting point [°C] |
| --- | --- |
| COC(=O)NC1=NCC(c2ccccc2F)N1C (configuration not stated) | 153 to 155 |
| Cc1cc(C)c(S(=O)(=O)N(C)C)cc1[N+](=O)[O-] | 113 |
| Cc1nc(O)cc(C(C)(C)C)n1 | 131 to 132 |
| CN(C)CCN(C(=O)c1cccc([N+](=O)[O-])c1Br)c1ccnc2cc3c(cc12)OCO3 | 96 to 97 |
| OCc1ccc2cc(OCc3ccccc3)ccc2c1 | 130 to 132 |
| N#Cc1ccc2c(c1)Sc1ccccc1CC2=O | 166 to 170 |
| Cc1sc2c(Br)c3ccccc3c(-c3cc(Br)c(O)c(C(C)C)c3)c2c1C | 157 to 162 |
| O=C(OCc1cc2c3ccccc3[nH]c(=O)n2n1)c1ccccc1 | 262 to 265 |
| CCCCCCCCNC(=O)C=CSC(C(=O)c1ccccc1)C(=O)c1cccn1C (configuration not stated) | 131 to 132 |
| CC(C)N(C=Nc1ncc(I)c(Cl)n1)C(C)C | 97 to 100 |
| CCS(=O)(=O)Nc1cc(-n2nc3n(c2=O)CCCS3)c(F)cc1C#N | 193 to 195 |
| CC(C)CCCC(C)C1CCC2C3CC=C4CC(OCCCCCCS)CCC4(C)C3CCC12C (configuration not stated) | 89 to 90 |
| O=C(O)c1ccc(C#CC=Cc2ccccc2-c2ccc(Cl)cc2)cc1 | 135 |
| COC(=O)Cc1ccc(OCC2CN(c3ccc(C(=N)N)cc3)C(=O)O2)cc1 (configuration not stated) | 151 to 152 |
| CCCN1N=C2C(=Cc3cccc(C(F)(F)F)c3)CS(=O)(=O)CC2C1c1cccc(C(F)(F)F)c1 (configuration not stated) | 190 to 191 |
| O=c1c(-c2ccccc2)c[nH]n1-c1ccccn1 | 132 to 133 |
| CNc1cn(-c2cccnc2)nc1Cl | 104 to 106 |
| CC(C)C(=O)CCSc1cc(C(C)(C)C)c(O)c(C(C)(C)C)c1 | 50 to 53 |
| Cc1ccc(S(=O)(=O)OC[C@H]2COCCO2)cc1 | 53 to 54 |
| NCc1ccc2c(c1)N(C1CCN(CCc3ccc(F)cc3)CC1)CC2 | 83 to 85 |
| COc1cc(OC)c2c(=O)[nH]c(-c3ccc(OCCNC(C)C)c(-c4cccc(S(C)=O)c4)n3)nc2c1 (configuration not stated) | 156 to 157 |
| CC(=O)SCC(Cc1cccnc1)C(=O)Nc1cccc(C(=O)O)c1 (configuration not stated) | > 200 |
| CC1(C#CC2(C(F)(F)F)C=NC(=O)Nc3ccc(Cl)cc32)CC1 (configuration not stated) | 196 to 198 |
| O=CN1CCSc2ccccc2C1 | 84 to 87 |
| C=Cc1c(C(C)C)nc(C(C)C)c(CO)c1-c1ccc(F)cc1 | 119 to 120 |
| COC(=O)c1cc(Cl)ccc1N(C)S(=O)(=O)c1ccc(C)cc1 | 65.5 to 67 |

| SMILES | melting point [°C] |
| --- | --- |
| CCCCCCC(C(=O)N1CCC[C@H]1C(=O)O)n1cnc(NC(=O)c2ccccc2S(=O)(=O)O)c1 (some centres not stated) | 190 to 195 |
| Cc1cn(Cc2ccccc2)c(=O)n(CCCCl)c1=O | 48 to 50 |
| CC(=O)Oc1cccc2oc(C(=O)Nc3ccc(CC4SC(=O)NC4=O)cc3)cc(=O)c12 (configuration not stated) | 257 to 260 |
| Cc1cc(O)c(Oc2ccccc2C#N)cc1N1CCOCC1 | 162 to 165 |
| CC(C)C1C(C=C(Br)Br)=CC=CN1C12CC3CC(CC(C3)C1)C2 (configuration not stated) | 176 to 177 |
| CNC1NC(=O)N(c2ccccc2)C(=O)N1N (configuration not stated) | 242 to 244 |
| N#Cc1ccc([C@H]2CC[C@H](CO)CC2)cc1 | 108 |
| CCOC(=O)C(=NOC)C1=CSCCN1C=O | 94 to 96 |
| O=c1cc(C(F)(F)F)cnn1-c1c(F)cc(Cl)c(O)c1[N+](=O)[O-] | 146 to 148 |
| COCOc1cccc(F)c1C=NO | 102 to 104 |
| O=C(NOc1ncc(C(F)(F)F)cc1Cl)c1cccc2ccccc12 | 198 to 199 |
| ClCc1cnc2cc(Cl)ccc2c1Cl | 106 to 107 |
| CCNC(=O)OCCOc1ccc(Oc2cccc(Cl)c2)cc1Cl | 73 to 74 |
| CCc1nc(C)c(CCC(=O)N(CC)CC)c(=O)n1Cc1ccc(-c2ccccc2-c2nnn[nH]2)cc1 | 100 to 105 |
| CSc1ncc(C(=N)NO)cc1Cl | 139 to 143 |
| Cc1c(SCCCCl)ccnc1CSc1ncccn1 | 83 to 85 |
| CN1CCN(Cc2nc3ccccc3[nH]2)CC1 | 179 to 183 |
| COc1cc(NC(=O)Nc2ccc(C3CCN(C(=O)Nc4ccc(OCC(O)CO)cc4Cl)CC3)cc2)cc(OC)c1 (configuration not stated) | 105 to 108 |
| O=P1(C2CCCCC2)c2ccccc2CN1c1ccccc1 (configuration not stated) | 167 to 169 |
| Clc1nc(N2CCOCC2)c2nnn(C3CCOCC3)c2n1 | 142 |
| O=C(NC1CCN(CCc2ccccc2)CC1)c1ccccc1 | 164 to 167 |
| COc1cc(Cc2cnc(NC=O)nc2N)cc(OC)c1OC | 240 to 242 |
| Cc1nc(N2CCN(Cc3ccc(C(F)(F)F)cc3)C2=O)sc1-c1cc[nH]n1 | 212 to 213 |
| COc1ccccc1-n1nnc2cc(F)c(N)cc21 | 128 to 129 |
